Experiments:
[1] = system: recent onset symptomatic AF/AFL; assay: Double-blinded placebo-controlled study, conversion of recent onset symptomatic AF/AFL to sinus rhythm (Example 6); format: in vivo, human
Experimental: (§1) The vanoxerine or identical appearing placebo was randomly assigned and administered in a double-blinded fashion.
Accordingly, a measurement of the improvement comprises a comparison to the rate of conversion of placebo, wherein the improvement is based on the percent increase in conversion over placebo. The 200 mg, having an improvement of conversion of 38%, 96%, and 55% at the above time points, 300 mg: 207%, 126%, and 68%, and the 400 mg: 300%, 230%, and 121%.
Definition of “pure” atrial flutter: only Atrial Flutter (no AF) seen at −30, −15, and 0 time points. Conversion at any time within 24 hours.
The highest oral dose of 400 mg achieved a conversion rate of 76% at 8 hours and 84% within 24 hours.

[2] = Adverse events in the AF/AFL conversion study (Example 6); format: in vivo, human
Excerpt: as §1

[3] = Plasma concentrations after a single 300 mg dose of vanoxerine in 25 patients (Example 1); format: in vivo, human; conditions: any time point
Experimental: Each patient gave samples before administration of their dose, and then again at nine further time points, 30 minutes after administration, 1, 2, 3, 4, 6, 8, 12, and 24 hours post administration.

[4] = system: conversion to normal sinus rhythm; assay: Human plasma concentration charted against conversion to normal sinus rhythm; format: in vivo
Experimental: This study favorable compares favorably to human models where plasma concentration is charted against conversion to normal sinus rhythm. […] However, most conversions occurred in the range of about 60 ng/ml. Accordingly, modifying doses to reach 60 ng/ml or higher is preferred for effective conversion to normal sinus rhythm.

[5] = cited from earlier work
[6] = cited from earlier work; remark: listed apart in the source
[7] = between patients; cited from earlier work
[8] = Daily dosing for 7 days in four patients (Example 4); format: in vivo, human
[9] = human, in vivo
Experimental: A standardized meal was served 15 minutes prior to each dosing.
The non-linear kinetics may be due to increasing bioavailability at higher doses based on a saturation of first pass metabolism.

clinical = conditions: human, in vivo
Excerpt: The results are listed below in Table 7.

Fc1ccc(C(OCCN2CCN(CCCc3ccccc3)CC2)c2ccc(F)cc2)cc1 [Vanoxerine, 1-[2-[bis(4-fluorophenyl)methoxy]ethyl]-4-(3-phenylpropyl)piperazine]
Improvement of conversion (percent increase over placebo) ([1]; 200 mg, 0-4 hours): 38%
Improvement of conversion (percent increase over placebo) ([1]; 200 mg, 0-8 hours): 96%
Improvement of conversion (percent increase over placebo) ([1]; 200 mg, 0-24 hours): 55%
Improvement of conversion (percent increase over placebo) ([1]; 300 mg, 0-24 hours): 68%
Improvement of conversion (percent increase over placebo) ([1]; 400 mg, 0-4 hours): 300%
Improvement of conversion (percent increase over placebo) ([1]; 400 mg, 0-8 hours): 230%
Dose dependence of conversion to sinus rhythm ([1]; doses of 200, 300 and 400 mg): highly statistically significant dose dependent increase
Number of adverse events reported ([2]; 200 mg (22)): 8 AEs
Number of serious adverse events ([2]; 200 mg (22)): 1 SAE
Number of adverse events reported ([2]; 300 mg (25)): 12 AEs
Number of adverse events reported ([2]; 400 mg (25)): 23 AEs
Number of serious adverse events ([2]; 400 mg (25)): 1 SAE
Tolerability ([2]; all doses): well tolerated at all doses
1:1 AFL post dose ([2]; any subject): No 1:1 AFL seen post dose in any subject
Proarrhythmia ([2]; conversion of recent onset symptomatic AF and AFL): absence of proarrhythmia
Serious adverse events in the study ([2]; one at 200 mg, one at 400 mg, neither related to the study drug): two
Highest plasma level, low concentration group [3]: ~40 ng/mL
Concentration at which most conversions occurred [4]: about 60 ng/ml
Plasma half-life ([5]; in vivo): about 22 hours
Steady state achieved within ([5]; oral dosing, some cases): ≤ 3 days
AUC ([6]; fasting (no food intake for eight hours)): lowest AUC
Cmax ([6]; high-fat diet (about 73 g fat) versus fasting and low-fat): significantly increased Cmax
Time the concentration remains elevated ([6]; high-fat diet): four to six hours
tmax ([6]; high-fat diet): nearly two and a half hours
Difference in Cmax concentrations or AUC between slower and higher metabolism groups [7]: ≥ 10 fold
Systolic blood pressure and heart rate ([8]; 100 mg for 7 days): increases in systolic blood pressure and heart rate were seen
Time to steady-state levels ([8]; all patients, 50, 100, 150 mg daily): within one week
All patients achieved steady state after [9]: 7 to 10 days
Dose proportionality of steady-state serum levels [9]: disproportionately and statistically greater levels at higher doses
Steady-state plasma concentrations achieved after [9]: 3 days
PK linearity / dose proportionality (clinical): linear and dose proportional
TMax (mean +− SD) (clinical): TMax 1.27 +− 0.5 hr
TMax range (clinical; 50 mg): (0.5-2.0) hr
half-life (clinical; 50 mg): 4.71 to 111 h
half-life (clinical; 75 mg): 10.3 to 117 h
half-life (clinical; 100 mg): 5.56 to 125 h
